We go through 48 compounds from US12338203B2 (TAISHO PHARMACEUTICAL CO., LTD., priority 2019, dated 2025).

The structures appear in SMILES notation.

The assay deals with T1, human LPAR1 (Homo sapiens, UniProt Q92633).
T1 construct: expressed in transfected cells
As to the kind of experiment: Test Example 1: antagonism against response of LPA-induced increase in intracellular Ca2+ concentration in RH7777 cells stably expressing human LPAR1. It is filed as cell-based. The conditions noted are these: RH7777 cells stably expressing human LPAR1; Fluo-4 fluorescence, FDSS6000; read-out: IC50 value (concentration producing 50% antagonism against response of LPA-induced increase in intracellular Ca2+ concentration) (converted). The essentials: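 Ca2+ flux read at 540 nm emission (480 nm excitation) after LPA addition to human LPAR1-expressing RH7777 cells exposed to compound for 30 min, 37 °C, pH 7.4 HEPES-buffered HBSS. Response relative to no-compound control after basal subtraction; IC50 fitted from concentration–response.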

T1 sequence (Q92633 whole entry): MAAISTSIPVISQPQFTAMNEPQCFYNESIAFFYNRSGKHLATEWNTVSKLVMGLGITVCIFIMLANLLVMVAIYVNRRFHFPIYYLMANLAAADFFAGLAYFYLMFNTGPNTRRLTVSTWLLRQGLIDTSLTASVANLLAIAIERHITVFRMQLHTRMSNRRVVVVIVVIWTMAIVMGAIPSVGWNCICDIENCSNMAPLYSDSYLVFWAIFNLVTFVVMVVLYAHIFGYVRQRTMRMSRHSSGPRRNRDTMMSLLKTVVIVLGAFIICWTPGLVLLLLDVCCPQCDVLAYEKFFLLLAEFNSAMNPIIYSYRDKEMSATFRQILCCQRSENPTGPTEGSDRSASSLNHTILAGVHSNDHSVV

Take `CCOc1cc([C@@H](C)N(CCO[C@@H](C)c2ccccc2)C(=O)NC2(C(=O)O)CC(OC)C2)cc(OCC)c1C1CC1` (stereo partly drawn) [Example 4-129, cis-1-[([(1R)-1-(4-cyclopropyl-3,5-diethoxyphenyl)ethyl]{2-[(1S)-1-phenylethoxy]ethyl}carbamoyl)amino]-3-methoxycyclobutane-1-carboxylic acid]: the IC50 is 1.03 nM. The same measure for `CCOc1cc([C@@H](C)N(CCCCc2ccccc2)C(=O)NC2(C(=O)O)CC(OCC)C2)cc(OCC)c1C(C)O` (stereo partly drawn) [Example 1-99]: 2.58 nM.

On to `CCOc1cc([C@@H](C)N(CCCCc2ccccc2)C(=O)NC2(C(=O)O)CCOCC2)cc(OCC)c1C(C)O` (stereo partly drawn) [Example 1-152, 4-{[{(1R)-1-[3,5-Diethoxy-4-(1-Hydroxyethyl)Phenyl]Ethyl}(4-Phenylbutyl) Carbamoyl]Amino}Oxane-4-Carboxylic Acid], for which the IC50 was 5.17 nM.

Regarding `CCOc1cc([C@@H](C)N(CCO[C@@H](C)c2ccccc2)C(=O)NC2(C(=O)O)CC(OC)C2)cc(OCC)c1C(C)O` (stereo partly drawn) [Example 4-123], the IC50 is 7.82 nM.

As for `COc1cc(C(C)N(CCOCc2ccccc2)C(=O)NC2(C(=O)O)CC(F)(F)C2)c(C)c(OC)c1C` (stereo not drawn) [Example 5-147], the IC50 was 3.62 nM. Consider `CCOc1cc([C@H](C)N(CCCCc2ccccc2)C(=O)NC2(C(=O)O)Cc3ccccc3C2)cc(OCC)c1C` [Example 1-124, 2-({[(1S)-1-(3,5-Diethoxy-4-Methylphenyl)Ethyl](4-Phenylbutyl) Carbamoyl}Amino)-2,3-Dihydro-1H-Indene-2-Carboxylic Acid], for which the IC50 was 237 nM.

Consider `CCOc1cc([C@@H](C)N(CCCOc2ccccc2)C(=O)NC2(C(=O)O)CC(F)(F)C2)cc(OCC)c1C` [Example 4-98], for which the IC50 was 5.48 nM. The same measure for `CCOC1CC(NC(=O)N(CCOCc2ccccc2)[C@H](C)c2cc(OC)c(C)c(OC)c2)(C(=O)O)C1` (stereo partly drawn) [Example 4-165]: 4.85 nM; for `CCOc1cc([C@@H](C)N(CCCCc2ccccc2)C(=O)NC2CC(C(=O)O)N(C(C)=O)C2)cc(OCC)c1C(C)=O` (stereo partly drawn) [Example 1-163]: 20.5 nM.

For the compound `CCOc1cc([C@@H](C)N(CCCCc2ccccc2)C(=O)NC2(C(=O)O)Cc3ccccc3C2)cc(OCC)c1C` [Example 1-123, 2-({[(1R)-1-(3,5-Diethoxy-4-Methylphenyl)Ethyl](4-Phenylbutyl) Carbamoyl}Amino)-2,3-Dihydro-1H-Indene-2-Carboxylic Acid], the IC50 was 12.7 nM. Regarding `CCOc1cc([C@@H](C)N(CCN2Cc3ccccc3C2)C(=O)NC2(C(=O)O)CC(F)(F)C2)cc(OCC)c1C` [Example 4-31], the IC50 is 28.4 nM.

With `CCOc1cc(C(C)N(CCOCc2ccccc2)C(=O)NC2(C(=O)O)CCOCC2)c(C)c(OCC)c1C(C)=O` (stereo not drawn) [Example 5-226], the IC50 was 4 nM.

For `CCOc1cc(C(C)N(CCCCc2ccccc2)C(=O)NC2(C(=O)O)CC(F)(F)C2)c(C)cc1C(C)=O` (stereo not drawn) [Example 1-81], the IC50 is 0.944 nM. As for `CCOc1c(C(C)O)ccc([C@@H](C)N(CCCCc2ccccc2)C(=O)NC2(C(=O)O)CC(F)(F)C2)c1C` (stereo partly drawn) [Example 1-77, 1-{[{(1R)-1-[3-Ethoxy-4-(1-Hydroxyethyl)-2-Methylphenyl]Ethyl}(4-Phenylbutyl) Carbamoyl]Amino}-3,3-Difluorocyclobutane-1-Carboxylic Acid], the figure is 3.12 nM; as for `CCOc1cc(C(C)N(CCCCc2ccccc2)C(=O)NC2(C(=O)O)CC(F)(F)C2)cc(OCC)c1C1CC1` (stereo not drawn) [Example 1-25], 2.71 nM.

As for `CCOc1cc(C(C)N(CCO[C@@H](C)c2ccccc2)C(=O)NC2(C(=O)OC(C)(C)C)CC(OCC)C2)c(Cl)c(OCC)c1C(C)=O` (stereo partly drawn) [Example 6-15], the IC50 is 3340 nM. With `CCOc1c(C(C)O)ccc([C@@H](C)N(CCCCc2ccccc2)C(=O)NC2(C(=O)O)CC(F)(F)C2)c1C` (single isomer, unassigned) [Example 1-78], the IC50 was 5.87 nM. For the compound `COc1cc(C(C)N(CCOCc2ccccc2)C(=O)NC2(C(=O)O)CCC2)cc(OC)c1C1CC1` (stereo not drawn) [Example 5-131], the IC50 is 10.8 nM.

Consider `COc1cc(C(C)N(CCO[C@@H](C)c2ccccc2)C(=O)NC2(C(=O)O)CC(F)(F)C2)c(C)c(OC)c1C` (stereo partly drawn) [Example 5-151], for which the IC50 is 4.46 nM. For `CCOc1cc([C@@H](C)N(CCCCc2ccccc2)C(=O)NC(C)(C)C(=O)O)cc(OCC)c1C` [Example 1-13], the IC50 was 20.4 nM. As for `CCOc1cc(C(CO)N(CCCCc2ccccc2)C(=O)NC2(C(=O)O)Cc3ccccc3C2)cc(OCC)c1C` (stereo not drawn) [Example 3-8], the figure is 33.5 nM; as for `COc1cc(CN(CCCCc2ccccc2)C(=O)NC(CC(F)(F)F)C(=O)O)cc(OC)c1C` (stereo not drawn) [Example 1-6], 1580 nM. As for `CCNc1cc([C@@H](C)N(CCCCc2ccccc2)C(=O)NC2(C(=O)O)CCC2)cc(OCC)c1C(C)=O` [Example 5-110], the IC50 is 1.78 nM. As for `CCOc1cc([C@@H](C)N(CCO[C@@H](C)c2ccccc2)C(=O)NC2(C(=O)O)CC(OC)C2)c(Cl)c(OCC)c1C(C)O` (single isomer, unassigned) [Example 5-58], the figure is 3.82 nM; as for `CCOc1cc(C(C)N(CCOCc2ccccc2)C(=O)NC2(C(=O)O)CC(OCC)C2)c(Cl)c(OCC)c1C(C)=O` (stereo not drawn) [Example 5-212], 1.98 nM. The same measure for `CCOc1cc([C@@H](C)N(CCO[C@@H](C)c2ccccc2)C(=O)N[C@]2(C(=O)O)C[C@@H](OC)C2)cc(OCC)c1C1CC1` [Example 4-128]: 1.08 nM; for `CCOc1cc(C(C)N(CCCCc2ccccc2)C(=O)NC2(C(=O)O)CC(F)(F)C2)cc2c1cnn2CC` (stereo not drawn) [Example 5-99, 1-({[1-(4-Ethoxy-1-Ethyl-1H-Indazol-6-Yl)Ethyl](4-Phenylbutyl) Carbamoyl}Amino)-3,3-Difluorocyclobutane-1-Carboxylic Acid]: 5.6 nM; for `CCOc1cc(C(C)N(CCOCc2ccccc2)C(=O)NC2(C(=O)O)CCC2)c(C)c(OCC)c1C1CC1` (stereo not drawn) [Example 5-192]: 0.47 nM. The same measure for `CCOc1cc(C(C)N(CCCc2cccc(F)c2)C(=O)NC2(C(=O)O)CC(F)(F)C2)cc(OCC)c1C` (stereo not drawn) [Example 4-7]: 25.2 nM; for `CCOc1cc([C@@H](C)N(CCO[C@@H](C)c2ccccc2)C(=O)NC2(C(=O)O)CC(OCC)C2)cc(OCC)c1C(C)=O` (stereo partly drawn) [Example 4-132]: 5.62 nM. Regarding `CCOc1c(C(C)=O)ccc([C@@H](C)N(CCO[C@H](C)c2ccccc2)C(=O)NC2(C(=O)O)CC(OC)C2)c1C` (stereo partly drawn) [Example 4-154], the IC50 was 3.68 nM. As for `CCOc1cc([C@@H](C)N(CCC(F)(F)Cc2ccccc2)C(=O)NC2(C(=O)O)CCOCC2)cc(OCC)c1C1CC1` [Example 4-96], the figure is 8.25 nM; as for `CCOc1c(C(C)=O)ccc([C@@H](C)N(CCCCc2ccccc2)C(=O)NC2(C(=O)O)CC(OCC)C2)c1C` (stereo partly drawn) [Example 1-102], 2.03 nM; as for `CCOc1cc(C(C)N(CCCc2cccc(C)c2)C(=O)NC2(C(=O)O)CC(F)(F)C2)cc(OCC)c1C` (stereo not drawn) [Example 4-13], 59.8 nM. As for `Cc1ccc(C(C)N(CCCCc2ccccc2)C(=O)NC2(C(=O)O)CC(F)(F)C2)cc1` (stereo not drawn) [Example 5-7], the figure is 132 nM; as for `CCOc1cc([C@@H](C)N(CCO[C@@H](C)c2ccccc2)C(=O)NC2(C(=O)OC)CC2)c(Cl)c(OCC)c1C(C)=O` [Example 6-3, Methyl 1-[([(1R)-1-(4-Acetyl-2-Chloro-3,5-Diethoxyphenyl)Ethyl]{2-[(1S)-1-Phenylethoxy]Ethyl}Carbamoyl)Amino]Cyclopropane-1-Carboxylate], 672 nM; as for `CCOc1cc(C(C)N(CCCCc2ccccc2)C(=O)NC2(C(=O)O)CC(F)(F)C2)cc(F)c1C(C)=O` (stereo not drawn) [Example 1-71], 3.48 nM. As for `O=C(NC1(C(=O)O)CC(F)(F)C1)N(CCCCc1ccccc1)C1CCc2c(Cl)cc(Cl)cc21` (stereo not drawn) [Example 5-116, 1-{[(4,6-Dichloro-2,3-Dihydro-1H-Inden-1-Yl) (4-Phenylbutyl) Carbamoyl]Amino}-3,3-Difluorocyclobutane-1-Carboxylic Acid], the figure is 22.2 nM; as for `CCOc1cc(C(C)N(CCOCc2ccccc2)C(=O)NC2(C(=O)O)CC2)c(Cl)c(OCC)c1C1CC1` (stereo not drawn) [Example 5-185], 0.919 nM; as for `CCOc1cc([C@@H](C)N(CCO[C@@H](C)c2ccccc2)C(=O)N[C@]2(C(=O)O)C[C@H](OCC)C2)c(Cl)c(OCC)c1C(C)=O` [Example 5-27], 3.84 nM. For `CCOc1cc(OCC)cc(C(C)N(CCCCc2ccccc2)C(=O)NC2(C(=O)OC)CCCC2)c1` (stereo not drawn) [Example 6-2, Methyl 1-({[1-(3,5-Diethoxyphenyl)Ethyl](4-Phenylbutyl) Carbamoyl}Amino)Cyclopentane-1-Carboxylate], the IC50 was 3760 nM. The same measure for `CCOc1cc(C(C)N(CCCCc2ccccc2)C(=O)NC2(C(=O)O)CC(OCC)C2)cc(OCC)c1C1CC1` (stereo not drawn) [Example 1-101]: 1.44 nM; for `CCOc1cc([C@@H](C)N(CCC(F)(F)Cc2ccccc2)C(=O)NC2(C(=O)O)CC(F)(F)C2)cc(OCC)c1C1CC1` [Example 4-87]: 2.53 nM; for `CCOc1cc(C(C)N(CCOCc2ccccc2)C(=O)NC2(C(=O)O)CC(OC)C2)c(C)c(OCC)c1C1CC1` (stereo not drawn) [Example 5-201]: 0.712 nM. As for `CCOc1cc([C@@H](C)N(CCO[C@@H](C)c2ccccc2)C(=O)NC2(C(=O)O)CC(F)(F)C2)cc(OCC)c1C1CC1` [Example 4-118], the figure is 0.948 nM; as for `COc1cc(C(C)N(CCOCc2ccccc2)C(=O)NC2(C(=O)O)CC(F)(F)C2)c(Cl)c(OC)c1C1CC1` (stereo not drawn) [Example 5-144], 1.11 nM.

In the case of `CCOc1cc(C(C)N(CCCCc2ccccc2)C(=O)NC2(C(=O)O)CCCC2)cc(OCC)c1C` (stereo not drawn) [Example 1-112], the IC50 is 18.7 nM. As for `CCOc1cc(OCC)cc(C(C)N(CCCCc2ccccc2)C(=O)NC2(C(=O)O)CC(F)(F)C2)c1` (stereo not drawn) [Example 5-1, 1-({[1-(3,5-Diethoxyphenyl)Ethyl](4-Phenylbutyl) Carbamoyl}Amino)-3,3-Difluorocyclobutane-1-Carboxylic Acid], the figure is 99.6 nM.
